Reference: patent publication US8912144B2, “Method for treating stroke via administration of NEP1-40 and inosine” (Children's Medical Center Corporation, priority 2003, dated 2014)

System: corticospinal neurons (CSNs/CSMNs)
Assay: Laser-capture microdissection and Illumina microarray gene expression in corticospinal neurons contralateral to stroke
Format: in vivo, rat
Experimental: In a separate group of animals (n=20), layer V pyramidal cells of the sensorimotor cortex were retrogradely labeled by injecting Alexa-Fluor-488-conjugated cholera toxin B subunit (CTB; 300 U/μl in sterile saline) into the cervical spinal cord. For this, animals were anesthetized with a combination of ketamine and Domitor (medetomidine) and a laminectomy was performed at the cervical level of the spinal cord (C2-C4). CTB was stereotaxically delivered into four sites lateral to the corticospinal tract. Injections (1.3 μl) were spaced 1 mm apart on the rostro-caudal axis, and were made 0.5 mm to the left and right of the midline. After allowing two weeks for transport of the tracer, we performed either sham surgery with no treatment (n=6) or stroke surgery combined with saline (n=3) or inosine (n=4) treatment as described above. Seven days later, animals were decapitated under transient gas anesthesia, brains were removed and rinsed in cold RPMI medium, and a tissue block containing the sensorimotor cortex was dissected and placed in OCT Tissue Tek Medium (Sakura Finetek USA Inc., CA) on dry ice within five minutes of death. Ten μm sections were cut onto precleaned Gold Seal RITE-ON glass slides (Gold Seal Prod-ucts, Portsmouth, N.H.), placed on dry ice, and rapidly stored at −80° C.
Slide-mounted sections were thawed and dehydrated in RNAse-free ethanol gradients and xylene. Retro-gradely labeled, fluorescent cortical pyramidal cells in the undamaged hemisphere were individually captured using the Arcturus VERITAS system. ≧500 cells were collected from each animal and stored in Arcturus extraction buffer at −80° C. Total RNA was extracted from cells using the Micro-to-Midi TotalRNA Purification System (Invitrogen, Carlsbad Calif.) and double-amplified using the TargetAmp 2-Round Aminoallyl-aRNA Amplification kit 1.0 (Epicentre, Madison, Wis.). Amplified RNA was checked for average fragment length using the Agilent RNA 6000 Nano LabChip kit (Agilent Technologies, Santa Clara, Calif.) and then biotinylated and hybridized (1 μg) on Illumina RatRef-12 Expression BeadChip arrays (Illumina, San Diego Calif.), querying the expression of >22,000 RefSeq-curated rat transcripts. Results were obtained from a total of 15 samples representing 6 untreated controls, 4 animals with stroke treated with saline and 5 animals with stroke treated with inosine. Slides were processed and scanned with Illumina BeadStation platform according to the manufacturer protocol.
Raw data was analyzed using Bioconductor packages (www.bioconductor.org, (Gentleman et al., 2004)). Low level quality-control analysis was performed using inter-array Pearson correlation and clustering based on variance. Two arrays (1 saline and 1 inosine-treated) were outliers and were excluded from the analysis. Data was normalized using quantile normalization, and analysis of differential expression was performed using a linear model fitting (LIMMA package, (Smyth, 2005). Differentially expressed genes were classified according to gene ontology using Bioconductor packages and online tools (DAVID, http://david.abcc.ncifcrf.gov/). Pathway analysis was carried out using Ingenuity Pathway Analysis (Ingenuity Systems, www.ingenuity.com).

## OC[C@H]1O[C@@H](n2cnc3c(O)ncnc32)[C@H](O)[C@@H]1O [inosine]
ILMN_61521, inosine after stroke
  Signal Intensity, LOC500629: 946
ILMN_61607
  Fold-Induction Stroke, ino vs. cntrl, LOC500137: 0.58
ILMN_61607, inosine after stroke
  Signal Intensity, LOC500137: 454
ILMN_61840
  Fold-Induction Stroke, ino vs. cntrl, Slc6a15: 0.43
ILMN_61840, inosine after stroke
  Signal Intensity, Slc6a15: 1093
ILMN_62095
  Fold-Induction Stroke, ino vs. cntrl, Bpnt1: 0.70
ILMN_62095, inosine after stroke
  Signal Intensity, Bpnt1: 283
ILMN_62100, over and above inosine's effect of decreasing stroke-induced changes
  Fold-induction CSMNs: Ftl1: 1.74 fold
ILMN_62325
  Fold-Induction Stroke, ino vs. cntrl, Ddx1: 0.57
ILMN_62325, inosine after stroke
  Signal Intensity, Ddx1: 3553
ILMN_62559, over and above inosine's effect of decreasing stroke-induced changes
  Fold-induction CSMNs: Timp1: 3.74 fold
ILMN_62620
  Fold-Induction Stroke, ino vs. cntrl, Rab18: 0.76
ILMN_62620, inosine after stroke
  Signal Intensity, Rab18: 2230
ILMN_62651, over and above inosine's effect of decreasing stroke-induced changes
  Fold-induction CSMNs: Eif4ebp1: 1.86 fold
ILMN_62918
  Fold-Induction Stroke, ino vs. cntrl, Grinl1a: 0.66
ILMN_62918, inosine after stroke
  Signal Intensity, Grinl1a: 667
ILMN_62999
  Fold-Induction Stroke, ino vs. cntrl, Ppp1cb: 0.42
ILMN_62999, inosine after stroke
  Signal Intensity, Ppp1cb: 940
ILMN_63077
  Fold-Induction Stroke, ino vs. cntrl, LOC302559: 0.89
ILMN_63077, inosine after stroke
  Signal Intensity, LOC302559: 1031
ILMN_63297
  Fold-Induction Stroke, ino vs. cntrl, LOC366673: 0.60
ILMN_63297, inosine after stroke
  Signal Intensity, LOC366673: 298
ILMN_63299
  Fold-Induction Stroke, ino vs. cntrl, Rcn2: 0.60
ILMN_63299, inosine after stroke
  Signal Intensity, Rcn2: 442
ILMN_63474
  Fold-Induction Stroke, ino vs. cntrl, Gtl6: 0.51
ILMN_63474, inosine after stroke
  Signal Intensity, Gtl6: 302
ILMN_63608, LCM-captured CSMNs contralateral a stroke
  Fold-Induction, complement cascade gene C2: 2.93 fold
ILMN_63884
  Fold-Induction Stroke, ino vs. cntrl, Cdc91l1: 0.82
ILMN_63884, inosine after stroke
  Signal Intensity, Cdc91l1: 529
ILMN_63947
  Fold-Induction Stroke, ino vs. cntrl, LOC306428: 0.42
ILMN_63947, inosine after stroke
  Signal Intensity, LOC306428: 507
ILMN_64006
  Fold-Induction Stroke, ino vs. cntrl, LOC500436: 0.48
ILMN_64006, inosine after stroke
  Signal Intensity, LOC500436: 1871
ILMN_64007
  Fold-Induction Stroke, ino vs. cntrl, LOC366411: 0.51
ILMN_64007, inosine after stroke
  Signal Intensity, LOC366411: 295
ILMN_64237
  Fold-Induction Stroke, ino vs. cntrl, Bcl10: 0.84
ILMN_64237, inosine after stroke
  Signal Intensity, Bcl10: 723
ILMN_64781
  Fold-Induction Stroke, ino vs. cntrl, Magi3: 0.79
ILMN_64781, inosine after stroke
  Signal Intensity, Magi3: 472
ILMN_64945
  Fold-Induction Stroke, ino vs. cntrl, Rtn4: 0.57
ILMN_64945, inosine after stroke
  Signal Intensity, Rtn4: 6518
ILMN_65062
  Fold-Induction Stroke, ino vs. cntrl, LOC500501: 0.79
ILMN_65062, inosine after stroke
  Signal Intensity, LOC500501: 958
ILMN_65170
  Fold-Induction Stroke, ino vs. cntrl, LOC287212: 0.60
ILMN_65170, inosine after stroke
  Signal Intensity, LOC287212: 1634
ILMN_65309
  Fold-Induction Stroke, ino vs. cntrl, LOC499328: 0.53
ILMN_65309, inosine after stroke
  Signal Intensity, LOC499328: 899
ILMN_65450
  Fold-Induction Stroke, ino vs. cntrl, Psmb5: 0.65
ILMN_65450, inosine after stroke
  Signal Intensity, Psmb5: 2709
ILMN_65510
  Fold-Induction Stroke, ino vs. cntrl, Hnrpf: 0.86
ILMN_65510, inosine after stroke
  Signal Intensity, Hnrpf: 1922
ILMN_65587
  Fold-Induction Stroke, ino vs. cntrl, Psma7: 0.62
ILMN_65587, inosine after stroke
  Signal Intensity, Psma7: 2058
ILMN_65610
  Fold-Induction Stroke, ino vs. cntrl, LOC497663: 0.90
ILMN_65610, inosine after stroke
  Signal Intensity, LOC497663: 416
ILMN_65657
  Fold-Induction Stroke, ino vs. cntrl, Pafah1b2: 0.56
ILMN_65657, inosine after stroke
  Signal Intensity, Pafah1b2: 411
ILMN_65667
  Fold-Induction Stroke, ino vs. cntrl, LOC294046: 0.55
ILMN_65667, inosine after stroke
  Signal Intensity, LOC294046: 2096
ILMN_65668
  Fold-Induction Stroke, ino vs. cntrl, Rchy1: 0.77
ILMN_65668, inosine after stroke
  Signal Intensity, Rchy1: 416
ILMN_65702
  Fold-Induction Stroke, ino vs. cntrl, LOC501181: 0.49
ILMN_65702, inosine after stroke
  Signal Intensity, LOC501181: 268
ILMN_65814
  Fold-Induction Stroke, ino vs. cntrl, Mal: 0.40
ILMN_65814, inosine after stroke
  Signal Intensity, Mal: 465
ILMN_65993
  Fold-Induction Stroke, ino vs. cntrl, MGC93921: 0.69
ILMN_65993, inosine after stroke
  Signal Intensity, MGC93921: 845
ILMN_66036
  Fold-Induction Stroke, ino vs. cntrl, LOC299179: 0.76
ILMN_66036, inosine after stroke
  Signal Intensity, LOC299179: 385
ILMN_66272
  Fold-Induction Stroke, ino vs. cntrl, LOC317232: 0.70
ILMN_66272, inosine after stroke
  Signal Intensity, LOC317232: 5211
ILMN_66300
  Fold-Induction Stroke, ino vs. cntrl, Spnb4: 0.72
